PMC12446458, “Structural basis for DNA break sensing by human MRE11-RAD50-NBS1 and its regulation by telomeric factor TRF2” (Nature Communications, 2025)

T1: MR complex (human MRE11-RAD50) (Homo sapiens, UniProt Q92878)
T1 construct: MR complex, no NBS1; with Double-strand break repair protein MRE11
T1 sequence (Q92878 1-1312): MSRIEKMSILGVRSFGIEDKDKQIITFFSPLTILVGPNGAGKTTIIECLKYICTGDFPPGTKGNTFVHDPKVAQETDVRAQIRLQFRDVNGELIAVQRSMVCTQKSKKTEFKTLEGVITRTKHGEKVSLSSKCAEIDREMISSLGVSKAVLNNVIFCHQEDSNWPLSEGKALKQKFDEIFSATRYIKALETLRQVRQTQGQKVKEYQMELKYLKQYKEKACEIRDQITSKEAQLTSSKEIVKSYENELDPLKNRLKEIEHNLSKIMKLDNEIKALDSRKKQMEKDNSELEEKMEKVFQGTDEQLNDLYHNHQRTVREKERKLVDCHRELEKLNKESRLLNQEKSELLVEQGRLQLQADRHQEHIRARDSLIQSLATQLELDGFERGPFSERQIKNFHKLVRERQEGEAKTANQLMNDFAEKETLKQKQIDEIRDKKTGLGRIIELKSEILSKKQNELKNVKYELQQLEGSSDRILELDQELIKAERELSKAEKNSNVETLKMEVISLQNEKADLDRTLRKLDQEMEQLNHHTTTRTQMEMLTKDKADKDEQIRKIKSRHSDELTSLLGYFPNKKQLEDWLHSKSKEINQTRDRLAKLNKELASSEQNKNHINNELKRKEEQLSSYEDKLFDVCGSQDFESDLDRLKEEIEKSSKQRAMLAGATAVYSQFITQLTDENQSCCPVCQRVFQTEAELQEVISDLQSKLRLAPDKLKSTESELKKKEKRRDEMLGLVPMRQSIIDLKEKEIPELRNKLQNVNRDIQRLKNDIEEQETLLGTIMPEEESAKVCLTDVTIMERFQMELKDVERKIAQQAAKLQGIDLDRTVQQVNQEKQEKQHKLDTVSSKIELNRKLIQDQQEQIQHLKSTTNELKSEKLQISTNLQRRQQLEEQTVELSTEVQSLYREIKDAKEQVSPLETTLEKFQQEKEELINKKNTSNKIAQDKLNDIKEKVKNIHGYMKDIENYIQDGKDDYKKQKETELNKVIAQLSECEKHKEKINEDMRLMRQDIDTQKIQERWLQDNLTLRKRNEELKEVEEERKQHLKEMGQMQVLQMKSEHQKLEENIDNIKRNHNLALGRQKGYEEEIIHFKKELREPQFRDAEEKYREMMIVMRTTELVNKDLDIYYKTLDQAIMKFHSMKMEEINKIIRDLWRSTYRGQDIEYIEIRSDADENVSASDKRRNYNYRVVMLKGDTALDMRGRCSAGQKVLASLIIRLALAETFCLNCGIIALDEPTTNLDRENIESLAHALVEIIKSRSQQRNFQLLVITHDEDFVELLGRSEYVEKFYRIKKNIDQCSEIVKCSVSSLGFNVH
T1 sequence (P49959 2-708 partner): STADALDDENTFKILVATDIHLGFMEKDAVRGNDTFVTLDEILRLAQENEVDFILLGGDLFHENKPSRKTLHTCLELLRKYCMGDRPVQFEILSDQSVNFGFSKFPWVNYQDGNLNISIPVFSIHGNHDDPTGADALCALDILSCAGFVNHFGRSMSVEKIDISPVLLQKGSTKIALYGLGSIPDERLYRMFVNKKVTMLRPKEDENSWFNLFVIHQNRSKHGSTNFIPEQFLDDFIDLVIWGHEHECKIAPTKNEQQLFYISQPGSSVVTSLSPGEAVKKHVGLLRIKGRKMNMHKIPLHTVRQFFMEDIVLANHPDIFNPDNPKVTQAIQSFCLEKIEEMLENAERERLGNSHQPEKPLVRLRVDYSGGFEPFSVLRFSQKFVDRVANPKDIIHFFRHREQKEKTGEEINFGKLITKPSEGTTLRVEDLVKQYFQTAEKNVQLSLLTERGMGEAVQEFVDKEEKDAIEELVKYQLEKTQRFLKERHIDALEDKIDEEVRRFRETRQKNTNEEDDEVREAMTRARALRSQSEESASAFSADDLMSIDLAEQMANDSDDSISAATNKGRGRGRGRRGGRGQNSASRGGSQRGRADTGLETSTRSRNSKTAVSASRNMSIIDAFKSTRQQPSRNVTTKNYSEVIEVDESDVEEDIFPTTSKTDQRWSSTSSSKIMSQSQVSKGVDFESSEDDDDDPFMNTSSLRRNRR

T2: MRN complex (human MRE11-RAD50-NBS1) (Homo sapiens, UniProt Q92878)
T2 construct: Expi293F (MRE11 H129N) or Hi5 insect cells (wild type); with Double-strand break repair protein MRE11; Nibrin
T2 sequence (Q92878 1-1312): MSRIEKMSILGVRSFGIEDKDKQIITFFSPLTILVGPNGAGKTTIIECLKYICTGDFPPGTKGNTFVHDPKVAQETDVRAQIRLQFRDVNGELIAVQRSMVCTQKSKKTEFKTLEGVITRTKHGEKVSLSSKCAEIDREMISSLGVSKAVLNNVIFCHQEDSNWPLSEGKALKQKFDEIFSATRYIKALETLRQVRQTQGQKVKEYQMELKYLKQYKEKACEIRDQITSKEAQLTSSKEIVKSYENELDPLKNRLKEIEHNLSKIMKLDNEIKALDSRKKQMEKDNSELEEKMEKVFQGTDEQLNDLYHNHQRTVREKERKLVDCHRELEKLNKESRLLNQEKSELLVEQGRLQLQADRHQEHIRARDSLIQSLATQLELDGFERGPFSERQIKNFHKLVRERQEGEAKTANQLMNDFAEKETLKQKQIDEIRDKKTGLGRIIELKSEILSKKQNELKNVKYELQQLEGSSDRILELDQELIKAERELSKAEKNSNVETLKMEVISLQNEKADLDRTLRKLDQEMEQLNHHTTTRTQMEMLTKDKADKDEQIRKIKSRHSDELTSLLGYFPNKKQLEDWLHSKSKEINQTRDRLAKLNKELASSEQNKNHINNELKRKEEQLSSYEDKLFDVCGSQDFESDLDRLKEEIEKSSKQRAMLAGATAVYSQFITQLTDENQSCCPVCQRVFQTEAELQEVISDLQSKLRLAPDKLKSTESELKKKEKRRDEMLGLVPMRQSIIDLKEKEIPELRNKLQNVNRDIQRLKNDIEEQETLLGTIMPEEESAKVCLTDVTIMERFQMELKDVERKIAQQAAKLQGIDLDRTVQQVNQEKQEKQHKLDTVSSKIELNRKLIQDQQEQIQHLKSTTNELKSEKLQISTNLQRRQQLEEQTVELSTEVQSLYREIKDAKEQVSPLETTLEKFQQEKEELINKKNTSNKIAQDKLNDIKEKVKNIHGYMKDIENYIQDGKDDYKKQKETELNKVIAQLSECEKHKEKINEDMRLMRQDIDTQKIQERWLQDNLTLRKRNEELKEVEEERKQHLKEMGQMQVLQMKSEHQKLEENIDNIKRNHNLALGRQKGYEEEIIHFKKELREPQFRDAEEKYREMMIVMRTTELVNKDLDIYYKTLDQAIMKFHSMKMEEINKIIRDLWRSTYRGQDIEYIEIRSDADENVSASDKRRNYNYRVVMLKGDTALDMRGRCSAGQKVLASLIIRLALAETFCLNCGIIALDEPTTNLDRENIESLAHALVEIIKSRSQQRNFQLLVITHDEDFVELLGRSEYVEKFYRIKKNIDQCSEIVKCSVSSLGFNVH
T2 sequence (P49959 2-708 partner): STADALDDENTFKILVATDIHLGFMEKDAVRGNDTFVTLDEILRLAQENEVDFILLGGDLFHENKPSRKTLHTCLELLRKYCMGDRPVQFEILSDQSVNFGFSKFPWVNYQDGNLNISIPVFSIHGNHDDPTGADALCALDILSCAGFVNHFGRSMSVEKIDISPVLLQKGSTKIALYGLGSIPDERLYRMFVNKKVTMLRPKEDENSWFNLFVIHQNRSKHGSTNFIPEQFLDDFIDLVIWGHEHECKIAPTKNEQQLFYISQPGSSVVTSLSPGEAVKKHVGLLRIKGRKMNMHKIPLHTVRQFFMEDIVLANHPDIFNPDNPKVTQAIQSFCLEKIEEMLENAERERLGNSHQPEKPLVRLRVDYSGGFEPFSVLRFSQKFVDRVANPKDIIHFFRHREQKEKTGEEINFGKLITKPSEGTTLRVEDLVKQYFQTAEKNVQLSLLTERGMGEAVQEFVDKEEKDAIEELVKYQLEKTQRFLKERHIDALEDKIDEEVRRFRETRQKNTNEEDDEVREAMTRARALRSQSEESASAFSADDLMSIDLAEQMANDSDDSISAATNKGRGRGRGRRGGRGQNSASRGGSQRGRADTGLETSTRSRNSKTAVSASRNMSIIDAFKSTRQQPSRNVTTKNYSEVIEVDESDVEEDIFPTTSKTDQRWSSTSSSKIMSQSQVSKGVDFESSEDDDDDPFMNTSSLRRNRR
T2 sequence (O60934 1-754 partner): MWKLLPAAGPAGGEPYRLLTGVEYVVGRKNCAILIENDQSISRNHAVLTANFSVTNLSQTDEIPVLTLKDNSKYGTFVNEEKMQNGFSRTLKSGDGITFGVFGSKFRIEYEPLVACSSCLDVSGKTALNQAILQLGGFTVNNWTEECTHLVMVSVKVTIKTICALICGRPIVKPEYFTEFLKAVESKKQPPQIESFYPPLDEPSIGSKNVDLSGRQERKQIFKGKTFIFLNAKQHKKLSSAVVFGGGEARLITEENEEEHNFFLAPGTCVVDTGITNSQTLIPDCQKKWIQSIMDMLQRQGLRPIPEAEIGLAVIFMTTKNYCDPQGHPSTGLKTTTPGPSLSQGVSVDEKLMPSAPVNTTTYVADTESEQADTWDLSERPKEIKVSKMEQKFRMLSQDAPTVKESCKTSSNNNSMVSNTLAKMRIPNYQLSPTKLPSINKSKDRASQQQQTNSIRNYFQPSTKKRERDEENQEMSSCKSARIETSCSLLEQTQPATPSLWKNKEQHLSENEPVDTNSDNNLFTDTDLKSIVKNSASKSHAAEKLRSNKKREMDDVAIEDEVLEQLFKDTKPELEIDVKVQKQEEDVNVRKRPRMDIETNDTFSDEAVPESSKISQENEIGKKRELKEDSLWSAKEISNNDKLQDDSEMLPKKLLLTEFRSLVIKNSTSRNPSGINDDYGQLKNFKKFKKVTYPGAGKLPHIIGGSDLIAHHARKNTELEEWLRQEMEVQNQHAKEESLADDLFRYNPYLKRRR


How the values were obtained:
[1] = target: T1, MR complex (human MRE11-RAD50); experiment: NADH-coupled ATPase assay; format: biochemical; settings: 0.15 mM ATP, 2 mM MgCl2, 1 mM MnCl2, pH 7.5, 37 °C; with and without 64 bp Myb DNA; rate in figure only
[2] = target: T2, MRN complex (human MRE11-RAD50-NBS1); experiment: NADH-coupled ATPase assay; format: biochemical; settings: 0.15 mM ATP, 2 mM MgCl2, 1 mM MnCl2, pH 7.5, 37 °C; with and without 64 bp Myb DNA; rate in figure only; MRE11 wild type or H129N not clearly told for this assay
TRF2 full length = TRF2 full length (Homo sapiens, UniProt Q15554 1-542); experiment: fluorescence anisotropy; 1 mM ATP, 5 mM Mg2+; two specific binding sites fit; FA: 25 mM HEPES pH 8.0, 100 mM NaCl, 5 mM MgCl2, 0.2 mg/ml BSA, 1 mM DTT, 1 mM ATP unless stated, 30 nM 6-FAM DNA, read over 30 min; temperature not stated; settings: protein: recombinant; tags: MBP removed (3C); C-terminal His10; chain copies: 2; blunt
Sequence of TRF2 full length (Q15554 whole entry): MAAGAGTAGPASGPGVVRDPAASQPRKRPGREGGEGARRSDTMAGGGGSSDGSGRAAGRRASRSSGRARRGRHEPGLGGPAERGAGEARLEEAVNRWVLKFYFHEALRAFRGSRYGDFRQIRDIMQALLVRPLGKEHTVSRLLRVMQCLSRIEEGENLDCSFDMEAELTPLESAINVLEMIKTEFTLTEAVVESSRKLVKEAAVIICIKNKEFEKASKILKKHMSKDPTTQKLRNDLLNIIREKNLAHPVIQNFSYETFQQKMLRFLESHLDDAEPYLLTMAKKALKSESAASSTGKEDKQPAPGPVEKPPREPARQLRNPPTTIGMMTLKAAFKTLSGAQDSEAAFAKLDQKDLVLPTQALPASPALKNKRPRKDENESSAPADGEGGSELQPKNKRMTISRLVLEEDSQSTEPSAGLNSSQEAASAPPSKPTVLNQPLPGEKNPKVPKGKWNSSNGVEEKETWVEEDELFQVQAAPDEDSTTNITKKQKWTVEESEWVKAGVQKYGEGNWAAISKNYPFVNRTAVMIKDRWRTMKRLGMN

| Molecule | NADH-coupled ATPase assay [1] | NADH-coupled ATPase assay [2] | Kd (TRF2 full length) |
| --- | --- | --- | --- |
| Nc1ncnc2c1ncn2[C@@H]1O[C@H](COP(=O)(O)OP(=O)(O)OP(=O)(O)O)[C@@H](O)[C@H]1O [ATP] | ATPase activity of MR(N) complex stimulated by DNA binding | The purified MRN complex showed the characteristic DNA-stimulated ATPase activity |  |
| 64 bp Myb DNA, 6-FAM (dsDNA) DNA 1: TCTAGGGTTAGGGTTAGATTAACGCTTCTGGAGAAACTCAACGAGCTCTAACCCTAACCCTAGA DNA 2: TCTAGGGTTAGGGTTAGAGCTCGTTGAGTTTCTCCAGAAGCGTTAATCTAACCCTAACCCTAGA |  |  | 121 nM |
